Test results published in article PMC8605905 (Oxidative Medicine and Cellular Longevity, 2021).
pEC50: −log10 of the molar value.

Assays:
[1] = test system: Aβ-GFP SH-SY5Y cells; assay: Western blot in Aβ-GFP SH-SY5Y cells; type: cell-based, Human; details: inhibitor 10 μM on day 6, LM-021 5 μM
Protocol: (§1) To monitor the cAMP-mediated signal transduction pathway, CRE-GFP 293 cells in 6-well plates (1 × 10^6/well) were pretreated with kinase inhibitor H-89 (LC Laboratories, Woburn, MA, USA), KN-62 (Cayman Chemical, Ann Arbor, MI, USA), U0126 (LC Laboratories), or wortmannin (LC Laboratories) (10 μM) for 4 h before forskolin or LM-021 (10 μM) addition for 5 h. GFP fluorescence/protein and total/phosphorylated PKA, CaMKII, ERK, PI3K, and CREB levels were examined. In addition, Aβ-GFP or ∆K280 tauRD-DsRed SH-SY5Y cells were treated with retinoic acid (10 μM) on day 1, followed by the addition of LM-021 (5 or 10 μM) and doxycycline (5 or 2 μg/ml) on day 2, as described. Kinase inhibitors (10 μM) were added on day 6. On day 8, the cells were collected for protein expression analysis of BDNF, BCL2 (BCL2 apoptosis regulator), and BAX (BCL2 associated X, apoptosis regulator), and total/phosphorylated PKA, CaMKII, ERK, PI3K, and CREB. Also, cells were stained with DAPI and assessed for neurite outgrowth as described above.
(§2) Total proteins from CRE-GFP 293 and Aβ-GFP, ∆K280 tauRD-DsRed SH-SY5Y cells were extracted using lysis buffer (50 mM Tris-HCl (pH 8.0), 150 mM NaCl, 1 mM EDTA (pH 8.0), 1 mM EGTA (pH 8.0), 0.1% SDS, 0.5% sodium deoxycholate, 1% Triton X-100) containing phosphatase and protease inhibitor cocktails (Sigma-Aldrich). Protein concentrations were measured using a protein assay kit (Bio-Rad, Hercules, CA, USA), and 20 μg of proteins was separated with 10% SDS-PAGE and blotted onto polyvinylidene difluoride (PVDF) membranes (Sigma-Aldrich). After blocking, the membrane blot was incubated with primary antibody against GFP (1 : 500; Santa Cruz Biotechnology, Santa Cruz, CA, USA), PKA (1 : 1000; R&D Systems, Minneapolis, MN, USA), p-PKA (T197) (1 : 1000; Cell Signaling, Danvers, MA, USA), ERK (1 : 500; Cell Signaling), p-ERK (T202/Y204) (1 : 500; Cell Signaling), CaMKII (1 : 1000; Santa Cruz Biotechnology), p-CaMKII (T286) (1 : 1000; Cell Signaling), CREB (1 : 1000; Santa Cruz Biotechnology), p-CREB (S133) (1 : 1000; Millipore, Billerica, MA, USA), BDNF (1 : 500; Santa Cruz Biotechnology), BCL2 (1 : 500; BioVision), BAX (1 : 500; BioVision), GAPDH (glyceraldehyde-3-phosphate dehydrogenase, as a loading control) (1 : 1000; MDBio, Taipei, Taiwan), or β-tubulin (1 : 1000, Sigma-Aldrich, as a loading control). The immune complexes were visualized using horseradish peroxidase-conjugated goat anti-mouse or goat anti-rabbit IgG antibody (1 : 5000, GeneTex, Irvine, CA, USA) and a chemiluminescent substrate (Millipore).

[2] = test system: ∆K280 tauRD-DsRed SH-SY5Y cells; assay: High content analysis of neurite outgrowth in ΔK280 tauRD-DsRed cells; type: cell-based, Human; details: inhibitor 10 μM on day 6, LM-021 10 μM
Protocol: (§3) On day 1, Aβ-GFP or ∆K280 tauRD-DsRed SH-SY5Y cells were plated into 24-well plates (6 × 10^4/well) followed by addition of retinoic acid. On day 2, cells were treated with coumarin-chalcone derivatives (5 or 10 μM) and with doxycycline (5 or 2 μg/ml) to induce the expression of Aβ-GFP or ∆K280 tauRD-DsRed. On day 8, 4% paraformaldehyde, 0.1% Triton X-100, and 3% BSA were used to fix, permeabilize, and block cells, respectively. Subsequently, the cells were stained with TUBB3 (neuronal class III β-tubulin) primary antibody (1 : 1000; Covance, Princeton, NJ, USA) at 4°C overnight. Goat anti-rabbit Alexa Fluor 555 secondary antibody (1 : 1000; Thermo Fisher Scientific) was then added, followed by a 3 h incubation at room temperature. Following staining nuclei with 4′,-6-diamidino-2-phenylindole (DAPI) (0.1 μg/ml; Sigma-Aldrich), the neurons were imaged by using the HCA system and analysed by using the Neurite Outgrowth Application Module (MetaXpress; Molecular Devices).
as §1

[3] = test system: ∆K280 tauRD-DsRed SH-SY5Y cells; assay: Western blot in ΔK280 tauRD-DsRed SH-SY5Y cells; type: cell-based, Human; details: inhibitor 10 μM on day 6, LM-021 10 μM
Protocol: as §1, §2

[4] = test system: CRE-GFP 293 cells; assay: CRE-GFP 293 reporter cell assay (flow cytometry); type: cell-based, Human; details: inhibitor 10 μM 4 h before LM-021 10 μM, presence or absence of Ca2+ ionophore
Excerpt: Using the pCRE-MetLuc2-Reporter plasmid (Clontech, Mountain View, CA, USA) as a template, the DNA fragment containing the cAMP response element (CRE) motifs and TATA-like promoter (PTAL) flanked by MluI and AgeI restriction sites was amplified by PCR using sense ([…], MluI site underlined) and antisense ([…], AgeI site underlined) primers. The amplified CRE-PTAL promoter fragment was cloned into pGEM-T Easy (Promega, Madison, WI, USA) and sequenced. The CRE-PTAL-containing MluI/AgeI fragment and GFP-containing AgeI/NotI fragment (from pEGFP-N1; Clontech) were subcloned into MluI- and NotI-digested pcDNA5/FRT/TO (Novagen, Madison, WI, USA). The resulting construct with CRE-PTAL-driving GFP was used to establish 293 GFP reporter cells by targeting insertion into Flp-In-293 cells according to the supplier's instructions (Invitrogen). The cells were grown in a medium containing 5 μg/ml blasticidin and 100 μg/ml hygromycin.
On day 1, CRE-GFP 293 cells were seeded into 48-well plates (5 × 10^4/well). After 24 h, cells were treated with Ca^2+ ionophore (2 μM) (Sigma-Aldrich) for 0–24 h. Cell viability was measured using 3,(4,5-dimethylthiazol-2-yl)-2,5-diphenyltetrazolium bromide (MTT) assay (Sigma-Aldrich). The absorbance of the insoluble purple formazan dye was quantified at 570 nm on a μQuant microplate spectrophotometer (Bio-Tek). In addition, the cells were treated with the Ca^2+ ionophore A23187 (0.5–10 μM) (Sigma-Aldrich) for 5 h, followed by analysis of GFP fluorescence by flow cytometry (Becton–Dickinson, Franklin Lakes, NJ, USA) with excitation/emission wavelengths at 488/507 nm. To monitor CREB activation, cells were treated with forskolin or coumarin-chalcone derivatives (5–10 μM) in the presence or absence of Ca^2+ ionophore (2 μM) for 5 h, and GFP fluorescence was analysed.
as §1

[5] = test system: Aβ-GFP SH-SY5Y cells; assay: High content analysis of neurite outgrowth in Aβ-GFP cells; type: cell-based, Human
Protocol: as §3, §1

[6] = test system: CRE-GFP 293 cells; assay: Western blot in CRE-GFP 293 cells; type: cell-based, Human; details: inhibitor 10 μM, LM-021 10 μM, without Ca2+ ionophore, immunoblot
Protocol: as §1
Total proteins from CRE-GFP 293 and Aβ-GFP, ∆K280 tauRD-DsRed SH-SY5Y cells were extracted using lysis buffer (50 mM Tris-HCl (pH 8.0), 150 mM NaCl, 1 mM EDTA (pH 8.0), 1 mM EGTA (pH 8.0), 0.1% SDS, 0.5% sodium deoxycholate, 1% Triton X-100) containing phosphatase and protease inhibitor cocktails (Sigma-Aldrich). Protein concentrations were measured using a protein assay kit (Bio-Rad, Hercules, CA, USA), and 20 μg of proteins was separated with 10% SDS-PAGE and blotted onto polyvinylidene difluoride (PVDF) membranes (Sigma-Aldrich). […]

[7] = test system: Aβ-GFP SH-SY5Y cells; assay: ROS assay (CellROX Orange) in Aβ-GFP cells; type: cell-based, Human; details: tested 1.2–5 μM
Protocol: On day 1, Aβ-GFP or ∆K280 tauRD-DsRed SH-SY5Y cells were seeded into 96-well plates (2.5 × 10^4/well) and treated with retinoic acid (10 μM; Sigma-Aldrich) to prompt neuronal differentiation. […] On day 8, cells were stained with Hoechst 33342 (0.1 μg/ml; Sigma-Aldrich) for 30 min, and cell images were automatically captured at excitation/emission wavelengths of 482/[…] (GFP fluorescence) or 543/593 nm (DsRed fluorescence) using a high content analysis (HCA) system (Micro Confocal High-Content Imaging System). Image Acquisition and Analysis Software (MetaXpress) (Molecular Devices, Sunnyvale, CA, USA) was used to analyse the images. CellROX Orange (5 μM; Molecular Probes, Eugene, OR, USA) (for Aβ-GFP cells) or dichloro-dihydro-fluorescein diacetate (DCFH-DA, 10 μM; Invitrogen) (for ∆K280 tauRD-DsRed cells) was added to the cells and incubated at 37°C for 30 min. The HCA system was used to measure intracellular ROS at 531/593 nm (CellROX Orange fluorescence) or 482/536 nm (DCFH-DA fluorescence) of excitation/emission wavelengths.

[8] = test system: caspase 1; assay: Caspase 1 activity in Aβ-GFP cells; type: cell-based, Human; details: 5 μM, vs untreated cells
Protocol: (§4) Aβ-GFP or ∆K280 tauRD-DsRed SH-SY5Y cells were seeded into 6-well plates (5 × 10^5/well) and treated with retinoic acid, coumarin-chalcone derivatives, and doxycycline as previously described. On day 8, cells were collected and lysates were prepared with six freeze/thaw cycles. The supernatant was collected by centrifugation, followed by measurement of the caspase 1 activity in 50 μg aliquots of cell extract using the ICE fluorometric assay kit (BioVision, Milpitas, CA, USA). Following incubation of the mixture at 37°C for 2 h, fluorescence was measured with excitation/emission wavelengths at 400/505 nm (FLx800 fluorescence microplate reader). In addition, the collected cells were lysed by sonication. Acetylcholinesterase (AChE) activity in the supernatant was determined in 10 μg aliquots of cell extracts using the AChE activity assay kit (Sigma-Aldrich) according to the manufacture's protocol. Finally, the absorbance at 412 nm was measured using a Multiskan GO spectrophotometer (Thermo Fisher Scientific).

[9] = test system: Aβ-GFP SH-SY5Y cells; assay: Real-time PCR of Aβ-GFP RNA; type: cell-based, Human; details: 5 μM
Protocol: To measure the Aβ-GFP/tauRD-DsRed RNA expression on day 8, total RNA was extracted from collected cells and reverse-transcribed to cDNA (SuperScript III reverse transcriptase; Invitrogen, Waltham, MA, USA). Real-time quantitative PCR was performed using 100 ng of cDNA and the gene-specific TaqMan fluorogenic probe PN4331348 (EGFP) or customized Assays-by-Design probe for DsRed and 4326321E (HPRT1) (StepOnePlus Real-time PCR system, Applied Biosystems, Foster City, CA, USA). The RNA expression level was calculated using the formula 2^ΔCt, ΔCT = CT (control) − CT (target), in which CT indicates the cycle threshold.

[10] = test system: Acetylcholinesterase (AChE); assay: AChE activity in Aβ-GFP cells; type: cell-based; details: 5 μM, vs untreated cells
Protocol: as §4

[11] = test system: Aβ-GFP SH-SY5Y cells; assay: High content analysis of Aβ-GFP fluorescence; type: cell-based, Human
Protocol: Human neuroblastoma SH-SY5Y-derived Aβ-GFP [23] and ∆K280 tauRD-DsRed cells were kept in DMEM/nutrient mixture F12 (DMEM/F12) containing 10% FBS, 5 μg/ml blasticidin, and 100 μg/ml hygromycin (InvivoGen, San Diego, CA, USA). Doxycycline (Sigma-Aldrich) was applied to induce the expression of Aβ-GFP (5 μg/ml doxycycline) or ∆K280 tauRD-DsRed (2 μg/ml doxycycline).
On day 1, Aβ-GFP or ∆K280 tauRD-DsRed SH-SY5Y cells were seeded into 96-well plates (2.5 × 10^4/well) and treated with retinoic acid (10 μM; Sigma-Aldrich) to prompt neuronal differentiation. […] Image Acquisition and Analysis Software (MetaXpress) (Molecular Devices, Sunnyvale, CA, USA) was used to analyse the images. CellROX Orange (5 μM; Molecular Probes, Eugene, OR, USA) (for Aβ-GFP cells) or dichloro-dihydro-fluorescein diacetate (DCFH-DA, 10 μM; Invitrogen) (for ∆K280 tauRD-DsRed cells) was added to the cells and incubated at 37°C for 30 min.

SMILES	Effect of kinase inhibitor on LM-021-upregulated kinase phosphorylation [1]	Effect of kinase inhibitor on LM-021 increase in p-CREB, pro-BDNF, m-BDNF, and BCL2 [1]	Effect of kinase inhibitor on LM-021-ameliorated neurite length and branch length [2]	Effect of kinase inhibitor on LM-021-upregulated kinase phosphorylation [3]	Effect of kinase inhibitor on LM-021 upregulation of p-CREB, pro-BDNF, m-BDNF, and BCL2 [3]	Effect of kinase inhibitor on LM-021-activated GFP levels [4]	Effect of kinase inhibitor on LM-021-improved neurite length, processes, and branches ([5]; inhibitor 10 μM on day 6, LM-021 5 μM)	Effect of kinase inhibitor on increased p-CREB and GFP protein levels [6]	Concentration effectively decreasing ROS levels caused by Aβ overexpression [7]	Caspase 1 activity [8]	Aβ-GFP RNA levels [9]	AChE activity [10]	pEC50 ([11]; Homo sapiens, SH-SY5Y, read-out: EC50 in Aβ aggregation inhibition (GFP fluorescence))	Concentration significantly augmenting green fluorescence intensity (Aβ-GFP) ([11]; tested 1.2–5 μM, day 8)	Neurite length, processes, and branches ([5]; 5 μM)
N#CC(=C(/N)Sc1ccccc1N)/C(C#N)=C(/N)Sc1ccccc1N [U0126]	normalized p-ERK	attenuated the increase	reversed these effects	attenuated the rescue of p-ERK	attenuated the upregulation	attenuated the GFP levels	counteracted these improvements	significantly reduced							
COc1cc(/C=C/C(=O)CC(=O)/C=C/c2ccc(O)c(OC)c2)ccc1O [Curcumin, reference compound]									2.5 to 5 µM	reduced	did not significantly modify	reduced	5.21	2.5 to 5 µM	successfully ameliorated
